The record followed here is ChEMBL document CHEMBL5357021, “Novel Triazolopyridine-Based BRD4 Inhibitors as Potent HIV-1 Latency Reversing Agents” (ACS Med Chem Lett, 2024).

Active and inactive are the calls of the source. The calls are words filed in the database; no cut-off is given here. Bounds are passed on as bounds.

One may read the EC50 as the concentration at which the effect is half-maximal. One may read the CC50 as the concentration that lowers cell viability or growth by half.

The first data set concerns Human immunodeficiency virus 1. Description: Reversal of HIV-1 latency in CD4+ T-lymphoid J-Lat cells contains HIV-1 long terminal repeats (LTR)-Tat-GFP assessed as reactivation measured after 48 hrs by flow cytometry. The note with it: Human immunodeficiency virus 1, J-Lat 10.6, 48 h. It is filed as functional, organism-based.
`Cc1nnc2ccc(-c3cc(NS(=O)(=O)c4cccs4)ccc3Oc3ccc(F)cc3F)cn12`: the 50% effective concentration (EC50) was found to be 6.6 µM.
Consider `Cc1nnc2ccc(-c3cc(NS(=O)(=O)c4ccc([N+](=O)[O-])cc4)ccc3Oc3ccc(F)cc3F)cn12`, for which the EC50 is above 50 µM.
For `Cc1ccc(S(=O)(=O)Nc2ccc(Oc3ccc(F)cc3F)c(-c3ccc4nnc(C)n4c3)c2)cc1`, the EC50 is above 50 µM.
For the molecule `Cc1nnc2ccc(-c3cc(NS(=O)(=O)c4ccc(C(F)(F)F)cc4)ccc3Oc3ccc(F)cc3F)cn12`, the EC50 was above 50 µM.
Same read-out and setting: under `Cc1nnc2ccc(-c3cc(NS(=O)(=O)c4cccc(Br)c4)ccc3Oc3ccc(F)cc3F)cn12` stands 17.2 µM; under `Cc1nnc2ccc(-c3cc(NC(=O)C(C)(C)C)ccc3Oc3ccc(Cl)cc3F)cn12`, above 50 µM; under `Cc1nnc2ccc(-c3cc(NS(=O)(=O)C4CC4)ccc3Oc3ccc(F)cc3F)cn12`, 4.3 µM.

System in another data set: not listed separately
Description: Cytotoxicity against human non-infected J-Lat A10.6 cells assessed as cell death by CCK8 assay. It is filed as toxicity, cell-based, J-Lat 10.6.
Conditions: not given
Consider `Cc1nnc2ccc(-c3cc(NS(=O)(=O)c4cccs4)ccc3Oc3ccc(F)cc3F)cn12`, for which the CC50 was above 50 µM.
Same read-out and setting: under `Cc1nnc2ccc(-c3cc(NS(=O)(=O)c4ccc([N+](=O)[O-])cc4)ccc3Oc3ccc(F)cc3F)cn12` stands above 50 µM; under `Cc1ccc(S(=O)(=O)Nc2ccc(Oc3ccc(F)cc3F)c(-c3ccc4nnc(C)n4c3)c2)cc1`, above 50 µM; under `Cc1nnc2ccc(-c3cc(NS(=O)(=O)c4ccc(C(F)(F)F)cc4)ccc3Oc3ccc(F)cc3F)cn12`, above 50 µM.
For the molecule `Cc1nnc2ccc(-c3cc(NS(=O)(=O)c4cccc(Br)c4)ccc3Oc3ccc(F)cc3F)cn12`, the CC50 is above 50 µM.
Same read-out and setting: under `Cc1nnc2ccc(-c3cc(NC(=O)C(C)(C)C)ccc3Oc3ccc(Cl)cc3F)cn12` stands 32.9 µM; under `Cc1nnc2ccc(-c3cc(NS(=O)(=O)C4CC4)ccc3Oc3ccc(F)cc3F)cn12`, above 50 µM.

A further data set concerns the target Bromodomain-containing protein 4 (Homo sapiens) (UniProt O60885). Description: Inhibition of BRD4 phosphorylation in human J-Lat A10.6 cells contains HIV-1 long terminal repeats (LTR)-Tat-GFP at 1 uM measured after 24 hrs by Western blotting analysis. It is filed as cell-based. The following applies: J-Lat 10.6. On the technique in general: Immunoblotting shows a protein as a band on a membrane.
In the case of `Cc1csc2c1C(c1ccc(Cl)cc1)=N[C@@H](CC(=O)OC(C)(C)C)c1nncn1-2` (racemic), the inhibition entry was “Active”.

For the next data set the target is unchanged. Kind of data set: Inhibition of BRD4 in human J-Lat 10.6 cells contains HIV-1 long terminal repeats (LTR)-Tat-GFP assessed as increased CDK9 enrichment in LTR at 1 uM incubated for 6 hrs by ChiP assay. It is filed as cell-based.
Conditions: not given
Consider `Cc1csc2c1C(c1ccc(Cl)cc1)=N[C@@H](CC(=O)OC(C)(C)C)c1nncn1-2` (racemic), for which the inhibition result was “Active”.

The target is the same in a further data set. Description: Inhibition of BRD4 in human J-Lat 10.6 cells contains HIV-1 long terminal repeats (LTR)-Tat-GFP assessed as increased RNA pol II enrichment in LTR at 1 uM incubated for 6 hrs by ChiP assay. It is filed as cell-based.
Conditions: not given
For the molecule `Cc1csc2c1C(c1ccc(Cl)cc1)=N[C@@H](CC(=O)OC(C)(C)C)c1nncn1-2` (racemic), the inhibition result is “Active”.

The subject of a further data set is C8166. Description: Anti-HIV activity against HIV-1IIIB acute infected in human C8166 cells assessed as inhibition of p24 expression at 1 nM incubated for 72 hrs by ELISA assay in presence of N-(4-(2,4-difluorophenoxy)-3-(3-methyl-[1,2,4]triazolo[4,3-a]pyridin-6-yl)phenyl)-4-fluorobenzenesulfonamide. It is filed as functional, cell-based.
Conditions: not given
(In general: In an ELISA, binding on a coated surface is turned into a signal by an enzyme label.)
For `O=C1Nc2ccc(Cl)cc2[C@@](C#CC2CC2)(C(F)(F)F)O1`, the result was Active.

Another data set concerns Human immunodeficiency virus 1. Description: Anti-HIV activity against HIV-1IIIB acute infected in human C8166 cells assessed as inhibition of p24 expression at 50 nM incubated for 72 hrs by ELISA assay in presence of N-(4-(2,4-difluorophenoxy)-3-(3-methyl-[1,2,4]triazolo[4,3-a]pyridin-6-yl)phenyl)-4-fluorobenzenesulfonamide. It is filed as functional, organism-based.
Conditions: not given
For `Cc1nnc(C(=O)NC(C)(C)c2nc(C(=O)NCc3ccc(F)cc3)c(O)c(=O)n2C)o1`, the outcome was Active.

The subject of the next data set is Human immunodeficiency virus 1. Kind of data set: Anti-HIV activity against HIV-1IIIB acute infected in human C8166 cells assessed as inhibition of p24 expression at 25 nM incubated for 72 hrs by ELISA assay in presence of N-(4-(2,4-difluorophenoxy)-3-(3-methyl-[1,2,4]triazolo[4,3-a]pyridin-6-yl)phenyl)-4-fluorobenzenesulfonamide.
Conditions: not given
It is filed as functional, organism-based.
Consider `CC(C)CN(C[C@@H](O)[C@H](Cc1ccccc1)NC(=O)O[C@H]1CO[C@H]2OCC[C@H]21)S(=O)(=O)c1ccc(N)cc1`, for which the result was Active.

The next data set has as its system Human immunodeficiency virus 1. Description: Reversal of HIV-1 latency in ACH-2 cell line contains complete HIV-1 provirus assessed as reactivation by measuring HIV-1 p24 antigen expression 5 uM measured after 48 hrs by ELISA. It is filed as functional, organism-based.
Conditions: not given
On to `Cc1csc2c1C(c1ccc(Cl)cc1)=N[C@@H](CC(=O)OC(C)(C)C)c1nncn1-2` (racemic), for which the outcome was Active.
Take `Cc1nnc2ccc(-c3cc(NS(=O)(=O)c4cccs4)ccc3Oc3ccc(Cl)cc3F)cn12`: the result was Active.
Still for that read-out and setting: under `Cc1nnc2ccc(-c3cc(NS(=O)(=O)c4cccs4)ccc3Oc3ccc(F)cc3F)cn12` stands “Active”; under `CCS(=O)(=O)Nc1ccc(Oc2ccc(Cl)cc2Cl)c(-c2ccc3nnc(C)n3c2)c1`, “Active”.
On the same count and under the same terms, under `CCS(=O)(=O)Nc1ccc(Oc2ccc(F)cc2F)c(-c2cn(C)c(=O)c3[nH]ccc23)c1` stands “Active”.
Still for that read-out and setting: the same measure for `Cc1nnc2ccc(-c3cc(NS(=O)(=O)C4CC4)ccc3Oc3ccc(F)cc3F)cn12`: “Active”.

Another data set has as its target Bromodomain-containing protein 4 (Homo sapiens) (UniProt O60885). Kind of data set: Inhibition of BRD4 BD1 domain (unknown origin) at 1 uM by HTRF assay.
Conditions: not given
Take `Cc1csc2c1C(c1ccc(Cl)cc1)=N[C@@H](CC(=O)OC(C)(C)C)c1nncn1-2` (racemic): the inhibition entry is “Active”.
Still for that read-out and setting: the same measure for `Cc1nnc2ccc(-c3cc(NS(=O)(=O)c4cccs4)ccc3Oc3ccc(Cl)cc3F)cn12`: “Active”; for `Cc1nnc2ccc(-c3cc(NS(=O)(=O)c4cccs4)ccc3Oc3ccc(F)cc3F)cn12`: “Active”.
Still for that read-out and setting: under `Cc1nnc2ccc(-c3cc(NS(=O)(=O)c4cccc(Br)c4)ccc3Oc3ccc(F)cc3F)cn12` stands “Active”; under `CCS(=O)(=O)Nc1ccc(Oc2ccc(F)cc2F)c(-c2cn(C)c(=O)c3[nH]ccc23)c1`, “Active”.
The same measure, in the same setting: the same measure for `Cc1nnc2ccc(-c3cc(NS(=O)(=O)C4CC4)ccc3Oc3ccc(F)cc3F)cn12`: “Active”; for `Cn1cc(-c2cc(NS(=O)(=O)c3ccc(F)cc3)ccc2Oc2ccc(Cl)cc2F)c2cc[nH]c2c1=O`: “Active”.

A further data set shares this target. Kind of data set: Inhibition of BRD4 BD2 domain (unknown origin) at 1 uM by HTRF assay.
Conditions: not given
(TR-FRET usually uses a lanthanide donor and a delayed reading to cut background.)
For `Cc1csc2c1C(c1ccc(Cl)cc1)=N[C@@H](CC(=O)OC(C)(C)C)c1nncn1-2` (racemic), the inhibition entry was “Active”.
Same read-out and setting: under `Cc1nnc2ccc(-c3cc(NS(=O)(=O)c4cccs4)ccc3Oc3ccc(Cl)cc3F)cn12` stands “Active”; under `Cc1nnc2ccc(-c3cc(NS(=O)(=O)c4cccs4)ccc3Oc3ccc(F)cc3F)cn12`, “Active”; under `Cc1nnc2ccc(-c3cc(NS(=O)(=O)c4cccc(Br)c4)ccc3Oc3ccc(F)cc3F)cn12`, “Active”.
Still for that read-out and setting: the same measure for `CCS(=O)(=O)Nc1ccc(Oc2ccc(F)cc2F)c(-c2cn(C)c(=O)c3[nH]ccc23)c1`: “Active”; for `Cc1nnc2ccc(-c3cc(NS(=O)(=O)C4CC4)ccc3Oc3ccc(F)cc3F)cn12`: “Active”; for `Cn1cc(-c2cc(NS(=O)(=O)c3ccc(F)cc3)ccc2Oc2ccc(Cl)cc2F)c2cc[nH]c2c1=O`: “Active”.

The test system of the next data set is PBMC. Description: Immune hyper-activation in human PBMC cells assessed as CD25 expression at 1 uM measured after 48 hrs by flow cytometry.
Conditions: not given
It is filed as toxicity, cell-based.
For the molecule `Cc1csc2c1C(c1ccc(Cl)cc1)=N[C@@H](CC(=O)OC(C)(C)C)c1nncn1-2` (racemic), the Activity entry is recorded as “Non-Toxic”.

The next data set deals with PBMC. Description: Immune hyper-activation in human PBMC cells assessed as CD69 expression at 1 uM measured after 48 hrs by flow cytometry. It is filed as toxicity, cell-based.
Conditions: not given
For `Cc1csc2c1C(c1ccc(Cl)cc1)=N[C@@H](CC(=O)OC(C)(C)C)c1nncn1-2` (racemic), the Activity entry was “Non-Toxic”.

The subject of the next data set is PBMC. Description: Immune hyper-activation in human PBMC cells assessed as HLA-DR expression at 1 uM measured after 48 hrs by flow cytometry. It is filed as toxicity, cell-based.
Conditions: not given
Turning to `Cc1csc2c1C(c1ccc(Cl)cc1)=N[C@@H](CC(=O)OC(C)(C)C)c1nncn1-2` (racemic), the Activity result is listed as “Non-Toxic”.
